From article PMC4747340, “A new class of small molecule estrogen receptor-alpha antagonists that overcome anti-estrogen resistance” (Oncotarget, 2015) come the findings set out here.

Several values for one entry are separate records, joined by “and”; a condition that tells them apart may be missing. Identical values can stand only once. Like-named read-outs stand apart in the source and are kept apart here.

As a reminder, the IC50 is the concentration at which inhibition is half-maximal. The inhibition is the drop in the measured response relative to a control, in per cent.

Assay [1] addresses T1, estrogen receptor-alpha (ER) (Homo sapiens, UniProt P03372).
T1 sequence (P03372 1-595): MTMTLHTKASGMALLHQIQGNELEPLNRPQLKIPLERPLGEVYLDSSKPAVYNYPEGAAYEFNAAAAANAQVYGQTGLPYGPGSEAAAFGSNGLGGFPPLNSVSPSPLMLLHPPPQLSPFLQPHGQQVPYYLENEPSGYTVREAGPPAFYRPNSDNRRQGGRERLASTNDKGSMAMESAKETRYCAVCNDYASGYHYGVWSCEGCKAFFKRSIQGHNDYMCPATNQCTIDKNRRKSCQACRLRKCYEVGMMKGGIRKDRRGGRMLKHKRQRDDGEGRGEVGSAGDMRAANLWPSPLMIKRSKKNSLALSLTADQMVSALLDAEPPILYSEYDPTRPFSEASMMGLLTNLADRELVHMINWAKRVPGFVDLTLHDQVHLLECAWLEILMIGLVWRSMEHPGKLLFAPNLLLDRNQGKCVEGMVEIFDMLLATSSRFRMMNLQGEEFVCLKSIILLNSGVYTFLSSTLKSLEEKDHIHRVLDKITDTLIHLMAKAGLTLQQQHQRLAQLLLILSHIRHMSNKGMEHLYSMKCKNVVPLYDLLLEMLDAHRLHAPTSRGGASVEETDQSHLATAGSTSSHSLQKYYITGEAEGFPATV
Description: constitutive ER activity, ERE-TK-Luc reporter, in anti-estrogen resistant LCC9 cells. The assay is classed as cell-based. On the set-up: LCC9 cells in 24-well dishes were transfected overnight with the ERE-TK-Luc reporter plasmid; endogenous in cells; host or cells: LCC9. The settings on record: for IC50: LCC9, no E2, 24 hr, read-out: IC50 for inhibition of ER activity in LCC9. The method, then:
(§1) For MCF-7, luciferase activity is expressed as a fold-change relative to the no E2 control. For LCC9, luciferase activity is expressed relative to the control without the reporter present. Values plotted are means ± SEMs of four replicate wells. The data shown in each panel are representative of three independent experiments.
The cells were then treated with the indicated concentrations of the six bioactive compounds or vehicle only (DMSO) for 24-hr and assayed for luciferase activity. Luciferase activity is expressed as a percentage of the DMSO control. Values are means ± SEMs of four replicate wells. The data shown in each panel are representative of three independent experiments.
The cells were then harvested for luciferase assays. Luciferase activity was expressed as a fold-change relative to the no reporter control. Values plotted are means ± SEMs of four replicate wells. The data shown are representative of three independent experiments.
(§2) Subconfluent cells in 24-well dishes were transfected overnight with 0.25 μg of each indicated vector plus the ERE-TK-Luc reporter in serum-free DMEM containing Lipofectamine2000 (Life Technologies, Washington, DC). Total transfected DNA was kept constant by addition of control vector. The cells were washed, incubated in phenol red-free DMEM containing 5% charcoal-stripped serum (obtained from the Tissue Culture Shared Resource) (0.2 ml/well) ± E2 (10 nM) ± the indicated compound for 24-hr, and harvested for luciferase assays. For each assay condition was tested in quadrupicate. To monitor the transfection efficiency, cultures were co-transfected with plasmid pRSV-β-gal (Promega, Madison, WI) to visualize transfected cells by X-gal staining.

Another assay concerns LCC9 cells. Description: cell proliferation assay (cell counts days 1, 3, 5), LCC9. It counts as cell-based, human. The settings on record: for LCC9 cell proliferation, compound combined with Tam: compound plus Tam (1 μM) compared with compound alone. How it is done:
Starting on day 1, cells were refed daily with fresh medium (DMEM plus 5% CSS) containing the indicated agent. In panel F, the cells were refed with medium also containing ER-siRNA or control-siRNA (100 nM) at the indicated times. Wells were counted on days 1, 3, and 5 to determine cell numbers. Values are means ± SEMs of triplicate wells. The data shown in each panel are representative of three independent experiments.
Assays were performed using as the growth medium phenol red-free DMEM containing 5% charcoal-stripped serum. Briefly, proliferating cells were harvested using trypsin, counted, inoculated into 12-well dishes at 1 × 10^4 cells per well on day 0 and allowed to attach and recover for 24 hr. The cells were then treated with the indicated agents for up to five days, with daily refeeding with fresh medium and agents. Triplicate wells were counted by Coulter Counter on days 1, 3, and 5. For experiments using siRNAs, cells were treated with the indicated siRNA (100 nM) starting on day -2, and fresh siRNA was added on days 0, 2, and 4.

For assay [2], the system named is cathepsin D. Description: Western blotting of cathepsin D (E2/ER-regulated gene) in MCF-7 cells. The assay is classed as cell-based, human. The settings on record: for E2-stimulated expression of cathepsin D: MCF-7, E2 10 nM, 24 hr; for cathepsin D levels, compound alone: MCF-7, no E2, 24 hr. How it is done:
(§3) MCF-7 cells in DMEM plus 5% CSS were subjected to the indicated treatment(s) for 24-hr and then harvested for Western blotting to detect cathepsin D or actin (control for loading and transfer). B., D. LCC9 cells were treated with vehicle only (DMSO) or the indicated compound for 24-hr and then harvested for Western blotting for cathepsin D and actin. The data shown in each panel are representative of three independent experiments.
(§4) After the indicated cell treatment(s), the cells were harvested, and whole-cell lysates were prepared using RIPA buffer (Santa Cruz). Equal aliquots of whole-cell protein (either 100 μg unprecipitated whole-cell lysate or one half of the precipitated protein from 500-μg whole-cell lysate) were electrophoresed on 4-12% SDS-polyacrylamide gradient gels, transferred to nitrocellulose membranes (Millipore, Bedford, MA), and blotted using primary antibodies against BRCA1 (C-20, rabbit polyclonal, 1:200 dilution; Santa Cruz), cathepsin D (R-20, goat polyclonal, 1:300; Santa Cruz), ER (F10, mouse monoclonal, 1:500; Santa Cruz), or actin (goat polyclonal, sc-1615, 1:400; Santa Cruz). The membranes were blotted with the appropriate secondary antibodies (1:1000; Santa Cruz), and the blotted proteins were visualized using an electrochemiluminescence detection system (Amersham Biosciences), with colored markers (Bio-Rad Laboratories, Hercules, CA) as molecular size standards.
In general terms: A western blot detects proteins with antibodies after separation by electrophoresis.

Assay [3] has as its target T1, estrogen receptor-alpha (ER). Description: ER activity, ERE-TK-Luc reporter, in MCF-7 cells. The assay is classed as cell-based. On the set-up: MCF-7 cells in 24-well dishes were transfected overnight with the ERE-TK-Luc reporter plasmid; endogenous in cells; host or cells: MCF-7. The settings on record: for IC50: read-out: IC50 for inhibition of E2-stimulated ER activity. The method, then:
as §1
The cells were then treated ± 17β-estradiol (E2, 10 nM) and with the indicated compound (@ 1 μM or 20 μM) or vehicle only (DMSO) for 24 hr and assayed for luciferase activity. Luciferase activity is expressed as a fold-change relative to the no E2 control. The data shown are representative of three independent experiments.
as §2

The subject of assay [4] is cathepsin D. Description: Western blotting of cathepsin D in LCC9 cells. The settings on record: LCC9, 24-hr exposure. The assay is classed as cell-based, human. The method, then: as §3
as §4, with “The membranes were blotted with the appropriate secondary antibodies (1:1000; Santa Cruz), and the blotted proteins were visualized using an electrochemiluminescence detection system (Amersham Biosciences), with colored markers (Bio-Rad Laboratories, Hercules, CA) as molecular size standards.” left out

In the case of `O=C(c1cc(Br)ccc1O)c1cc(Br)ccc1O` [4631-P/1], in assay [1] (LCC9, 24 hr, Tam 5 μM in b8), the “effect on ER activity in LCC9 cells, single agent” value is given as “inhibited ER activity in LCC9 cells”. Further, the IC50 is no more than 1000 nM in assay [1] and no more than 1000 nM in assay [3] (MCF-7, E2 10 nM, 24 hr). For the same molecule, the “ER activity in LCC9 cells, compound combined with Tam” value in assay [1] (compound plus Tam compared with compound alone, 24 hr) is on record as “significantly lower ER activity than 4631-P/1 alone”. The “effect on LCC9 cell growth, single agent” value with LCC9 cells (DMEM + 5% charcoal-stripped serum, up to 5 days, 4631-P/1 at 1 μM) is “inhibited LCC9 cell growth”. Also, the “LCC9 cell proliferation, compound combined with Tam” value with LCC9 cells was “greater inhibition of cell proliferation than 4631-P/1 alone”. In addition, the “E2-stimulated expression of cathepsin D” value with cathepsin D [2] is given as “blocked E2-stimulated expression of cathepsin D”. In addition, in the assay on cathepsin D [2], the “cathepsin D levels, compound alone” value is given as “little or no effect”. Besides, the inhibition at 1 µM in assay [3] (MCF7, MCF-7, E2 10 nM, compound 1 μM, 24 hr, read-out: inhibition of E2-stimulated ER activity at 1 μM) is no less than 50%. In addition, in the assay on cathepsin D [4], the “constitutive cathepsin D levels in LCC9” value is reported as “decreased”.

Take `O=C(CC(c1ccccc1)N1CCCCC1)c1ccccc1` (stereo not drawn) [35446-L/1, 1,3-diphenyl-3-(piperidin-1-yl)propan-1-one]: the IC50 in assay [1] was no more than 1000 nM. For the same molecule, the “LCC9 cell proliferation in ER-siRNA-treated cells” value in the assay with LCC9 cells (ER-siRNA 100 nM) is given as “little effect on cell proliferation”. Moreover, the “LCC9 cell proliferation, compound combined with Tam” value in the assay with LCC9 cells was “greater inhibition of LCC9 proliferation than did 35466-L/1 alone”. In addition, in the assay with cathepsin D [2], the “E2-stimulated expression of cathepsin D” value is reported as “blocked E2-stimulated expression of cathepsin D” and the “cathepsin D levels, compound alone” value was “little or no effect”. Further, in assay [3] (MCF7, read-out: inhibition of E2-stimulated ER activity at 1 μM), the inhibition at 1 µM was no less than 50%. The IC50 in assay [3] (MCF-7, E2 10 nM, 24 hr) is ≤ 1000 nM and 800 nM. The “constitutive cathepsin D levels in LCC9” value in the assay on cathepsin D [4] is reported as “decreased”.
